# US9913858B2, “Prevention and treatment of toxicosis” (priority 2013, dated 2018)
# Legend:
# sheep = conditions: 120 mg/kg bromide
# Description: KBr solution was administered via an orogastric tube, then flushed with 500 mL water. Blood samples were collected at 0, 1, 2, 3, 4, 6, 8, 10, 12, 24 h, then at 12 h intervals to 240 h, then at 24 h intervals to 336 h. A final sample was taken at 504 h. When collecting blood samples at 1 h through to 10 h the rumen was auscultated, over the caudo-dorsal blind sack, to determine if the high salt load affected rumen motility.
# [1] = system: lolitrem B toxicosis (Rye Grass Staggers); assay: Clinical and neurological signs in sheep fed lolitrem B-containing toxic feed with or without potassium bromide; type: in vivo; conditions: sheep, Group 5: prophylactic oral KBr only
# Description: Animals were exposed to a controlled diet containing 0.16 mg/kg body weight (BW) lolitrem B toxin rising to 0.27 mg/kg BW after 21 days exposure to toxic feed. Toxin was delivered as perennial rye grass seed (GA66 AR98, Grasslanz Technology Ltd, NZ) containing very high levels of lolitrem B toxin (11 ppm DM) as a component of the animal's feed intake.
# On entry to the trial, all animals receiving toxic feed were exposed to a diet containing experimental ryegrass seed with a final lolitrem B concentration of 0.08 mg/kg LW, lucerne chaff and molasses 30% w/v for 3 days. After this induction period, the toxin content of the feed was increased to 0.16 mg/kg LW for the duration of the trial. […] Ryegrass seed constituted up to 65% of available Feed on Offer (FOO) by dry weight contributing a metabolisable energy of 12.1 Mj/kg DM.
# At entry to the trial, all animals were subjected to a full clinical examination. Live weight was recorded. Venous blood and urine samples were collected for laboratory. Animals were also subjected to gait analysis, neurological examination including proprioceptive testing, cranial nerve examination and papillary light and menace reflexes. Electromyography (EMG) of tricep and neck muscles was performed. Gait analysis (see below) was repeated at three day intervals until onset of significant clinical signs and/or gait abnormality at which point animals were subjected to gait analysis daily. Gait analysis was recorded on video each occasion.
# General clinical signs were also noted on a daily basis; these included observations of nervousness or agitation, changes in normal placement of body, limb or head position changes in faecal consistency, feeding behaviour or water consumption, observeable tremor of the body or head, eye position (strabismus) and movement (nystagmus), locomotory disturbances, or any other clinical changes worthy of note. Feed and water intake was monitored daily for the duration of the trial. Heart rate, respiration rate at rest and rectal temperature were also monitored daily.
# Prophylactic sheep received a split loading dose of 300 mg/kg on day 1, 120 mg/kg (100 mg LD+20 mg/kg daily maintenance dose) on day 2, 120 mg/kg on day 3 and 20 mg/kg daily for the duration of the trial. An acute treatment dose of 300 mg/kg LW was used for the trial. Both prophylactic and acute treatment doses were envisaged to give serum concentrations of 750 to 1000 μg/ml for the duration of the initial weeks of the trial.
# Group 1—Negative Control: lucerne chaff only;
# Group 2—Positive Control: lucerne chaff containing 0.16 mg/kg LW lolitrem B;
# Prophylactic treatment sheep (Groups 4 & 5) received a split loading dose of 300 mg/kg on day 1 of the trial, 120 mg/kg (100 mg LD 20 mg/kg daily maintenance dose) on day 2, 120 mg/kg on day 3 and 20 mg/kg daily thereafter. Acute therapy sheep were dosed with a single dose of 300 mg/kg on day of falling.
# End of the trial was defined for Groups 2 and 3 as date of falling. Group 1 animals entered the end of trial protocol with their Group 2 counterparts. Group 4 and 5 animals entered the end of trial protocol after 22 days. This end of trial protocol consisted of the following analysis: • On Day 1: animals were subjected to a full clinical examination, gait analysis, urine and blood collection, neurological examination and EMG. • On Day 2: further gait analysis was recorded, • On Day 3: animals were again subjected to full clinical examination, gait analysis, urine and blood collection, neurological examination and EMG as well as live weight recorded prior to necropsy.
# [2] = system: lolitrem B toxicosis (Rye Grass Staggers); assay: Gait analysis and time to falling; type: in vivo, sheep
# Description: Gait analysis was performed on entry to the trial and at designated time points throughout the trial as described above. To achieve this, animals were moved from their individual pens to an external yard in their cohort groups (five animals, one from each treatment). Animals were then encouraged to move at a run, initially in a group and then individually, for a minimum of three minutes per animal whilst their movement was captured on video and gait observations recorded.
# Once all animals had been analysed the whole cohort was returned to their individual pens. Gait abnormalities such as stumbling, falling or disorientation were noted, including observation of Type 1 or Type 2 gait changes as described in Combs et, al., (2014). Type I movement disorder is defined as an impaired alternating movement (dysdiadochokinesia), bunny-hopping gait and failure to maintain an appropriate direction. Type 2 movement disorder is defined by increasing rigidity of limbs on forced movement resulting finally in tonic fore and hind limb extension with the animal collapsing into sternal or lateral recumbency (Combs, Rendell et at 2014). Scores between those denoted above were considered as a gradation between the stated clinical observations. Analysis of gait was performed using the following scale in Table 2 and a composite score noted for each animal for each day during the end of trial protocol. A total score out of 30 was determined for each animal. The higher the score the greater the locomotory disturbance. Time to falling was determined post trial by analysis of video material,
# Animals that met the entry criteria (severe Type 2 gait abnormality and falling) were submitted to the end-of-trial protocol. […] Animals were subjected to the following tests on days 1 and 3: gait analysis, full neurological examination, venous blood and urine sampling and EMG. Only gait analysis was performed on day 2.
# [3] = Serum and cerebrospinal fluid bromide concentrations in the sheep trial; type: in vivo; conditions: sheep, sheep
# Description: Venous blood samples collected for biochemical analysis and haematocrit (PCV), and urine for USG, at three specific time points during the experiment for all animals: 1) on entry to the trial; 2) on date of entry to the end of trial protocol and, 3) on day of necropsy.
# A full clinical examination was performed prior to euthanasia. At euthanasia, 100 I.U. heparin (Provet Riverina Pty Ltd) was injected into the jugular vein, followed shortly by Lethabarb (20 mL/40 kg LW). Immediately after euthanasia, the ventral articulation of C1 was exposed and cerebrospinal fluid (CSF) collected using a 23 g needle. The head was then removed and subjected to perfusion fixation. Briefly, the carotid arteries were exposed and a small catheter inserted and ligated to secure the perfusion lines. Two liters of 0.1% phosphate buffered saline (PBS) containing 3000 I.U of heparin/L was then slowly perfused via the ligated vessels at a pressure of 90 mm Hg using a Microgon peristaltic Pump (Microgon, Laguna Hills, Calif.). Once complete this was replaced with 4% paraformaldehyde (Sigma-Alrich) in 0.1% PBS and a further two liters allowed to perfuse slowly through the tissues of the head. Once complete, catheters were removed and the whole head placed at 4° C. overnight to complete fixation. Twenty-four hours post perfusion fixation the brain was removed from the skull and placed in 10% formal saline for storage until dissection for processing to wax sections.
# Absorbance was measured with a spectrophotometer at 440 nm. […] The lower limit of quantification (LOQ) was 25 μg/mL.
smiles,measurement,setting,value
Br [bromide],adverse reactions,"sheep; either treatment group (IV, PO)",No adverse reactions were noted
same,"tranquilising effect, subjective observation",sheep; IV group,mild tranquilising effect
same,neurological effects,sheep; PO group,no discernable neurological effects
same,rumen motility,sheep; PO group,no observed alteration
same,animals showing evidence of mild anxiolysis,[1],519
same,"Altered stance, number of animals affected","[1]; no toxic feed, 22 days",4
same,"Fine tremor, number of animals affected","[1]; no toxic feed, 22 days",one
same,time to falling,"[2]; printed as Group 2 Day 2, 24 hours after single oral dose of bromide 300 mg/kg LW",145.66 ± 22.07 s
same,time to falling,"[2]; printed as Group 2 Day 3, 48 hours after single oral dose of bromide 300 mg/kg LW",124.75 ± 22.06 s
same,time to falling,"[2]; printed as Group 2 day 1, intoxicated sheep before single oral dose of bromide 300 mg/kg LW",52.44 s
same,Kp at 48 hours,"[3]; cerebrospinal fluid and serum, oral, 300 mg/kg, mean ratio of serum bromide:CSF bromide, Group 3, acute bromide treatment plus lolitrem B, 48 hours",0.81
same,Kp at 22 days,"[3]; cerebrospinal fluid and serum, oral, mean ratio of serum bromide:CSF bromide, Group 4, bromide prophylactic treatment plus lolitrem B",0.91
same,Kp at 22 days,"[3]; cerebrospinal fluid and serum, oral, mean ratio of serum bromide:CSF bromide, Group 5, bromide prophylactic controls",0.74
same,"serum bromide, factor Group 4 over Group 5","[3]; prophylactic bromide plus lolitrem B versus prophylactic bromide alone, 22 days",1.27
